Laboratory results as given in patent US6566508B2, “Fluorogenic compounds and uses therefor” (3M Innovative Properties Company, priority 2000, dated 2003).
Like-named read-outs stand apart in the source and are kept apart here. Each block holds one molecule with its values, some of them ahead of it.

Columns and labels:
[1] = test system: B. stearothermophilus spores; experiment: Bacterial hydrolysis of α-TUGlc; type: cell-based, Bacillus stearothermophilus; conditions: spores 1×10^8 cells/mL diluted in growth media, 56° C., 10 μL of 246 μM substrate
Procedure: 100 μL of B. stearothermophilus spores (initial cone. 1×10^8 cells/mL) was added to 890 μL of growth media and the mixture was incubated at 56° C. for 7 minutes. […] This increase in fluorescence indicates enzymatic cleavage of the substrate. However, because the spores have both β- and α-glucosidase activity, the stereochemistry of the substrate can not be judged.

[2] = test system: B. stearothermophilus α-glucosidase; experiment: Enzymatic hydrolysis of α-TUGlc; type: biochemical; conditions: 60° C., growth media, 10 μL of 246 μM substrate, ex 450 nm, em 502 nm
Procedure: Commercially prepared B. stearothermophilus α-glucosidase (Sigma Chemical Company, St. Louis, Mo.) was used as 100 units per mL (1 unit produces 1 μmole of product per minute). 10 μL of this solution was added to […] of growth media to simulate the actual environment of the bacterial spores. This enzyme and media mixture was then incubated for 7 minutes at 60° C., at which time 10 μL of 246 μM α-TUGlc (prepared as described in Example 4) was added. The reaction was monitored on the SPEX Fluorolog™ spectrofluorimeter by exciting at 450 nm with emission at 502 nm. […] Variation in fluorescence may be due to variation in activity of the bacterial enzyme per mL of mixture. The assays of examples 7 and 8 confirmed the presence of the α-glucoside derivative.

[3] = pKa determination from fluorescence emission as a function of pH
Procedure: Fifty microliters of this solution were then diluted to 4.00 mL in a series of 50 mM sodium phosphate buffer solutions, each having a different pH, corresponding to the traces of FIG. 7a, as shown in Table 1. The final concentration of TU was 3.08×10^−4 M.

[4] = Fluorescence excitation and emission spectra; conditions: for λem (nm) / λex (nm): anion of hydrolysis product
Text: Fluorescence measurements were made using a SPEX Fluorolog™ Series spectrofluorimeter (SPEX Industries, Inc., Edison, N.J.).
By using an excitation source filter centered in this spectral window and an emission source filter centered between 480 nm and 600 nm, the formation of TU anion can be measured as a product of the enzymatic cleavage of β-TUGlc without interference from β-TUGlc fluorescence.

[5] = target: β-galactosidase from E. coli (Escherichia coli, UniProt P00722); conditions: pH 7.6, 37° C., excitation 450 nm, 1, 10 and 20 μM substrate
Procedure: β-Galactosidase activity was continuously assayed at pH 7.6 in a fluorometer using front face detection.
Samples were excited at 450 nm and emission was monitored at 502 nm.
Assay solutions were prepared as follows: a 100 mM sodium phosphate solution, pH 7.6, a 30 mM MgCl2 solution, a solution of β-TUGal (3.08×10^−2 M, Example 1) in N,N-dimethyl formamide (DMF), and a solution of β-galactosidase (1.0 units/μl) from E. coli (Grade VIII, Sigma Chemical Co., St. Louis, Mo.) reconstituted in 100 mM sodium phosphate, pH 7.3.
All reagents were kept on ice until their time of use. From them, two solutions were prepared: the substrate solution and the enzyme solution. The substrate solution was prepared in a sample vial by further dilution of the β-TUGal solution in DMF. The preparations gave final concentrations of 1, 10, and 20 μM β-TUGal. In a separate cuvette, the phosphate buffer was combined with 150 μL MgCl2 solution and the appropriate amount of reconstituted β-galactosidase to make the enzyme solution. This was then incubated for seven minutes at 37° C. Following incubation, the substrate solution was added and the fluorescence was measured by front face detection over a 10-minute period at 37° C.

E. coli P18 cells = experiment: Escherichia coli detection with β-TUGal in growth media (microwell fluorescence); type: cell-based
Procedure: E. coli is known to secrete extracellular galactosidase. In a selective growth media, E. coli can be detected based on development of this enzyme activity. Varying concentrations of 3-(2-thienyl) umbelliferyl-β-D-galactoside (β-TUGal) indicator were assayed against three known concentrations of E. coli P 18 cells: ca 10^3, 10^2, and 10 cells/mL. Viable cell counts were determined using Petrifilm (3M, St. Paul, Minn.). Adjusting for the dilutions used in the fluorescence detection experiments, cell counts were approximately 56, 5.6, and 0.56 cells per well. A fresh overnight culture of E. coli P18 was prepared and grown in tryptic soy broth (TSB, Sigma Chemical Co., St. Louis, Mo.). Ten μL of this stock culture was diluted into […] of Butterfields phosphate buffer (Hardy Diagnostics, Santa Maria, Calif.) to give a 10,000 fold dilution. Next, 10 mL of this new solution was diluted into 90 mL of phosphate buffer to give an approximate E. coli concentration of 10^3 cells/mL. Two more dilutions in this same manner yielded cultures of 10^2 and 10 cells/mL. […] Each of the three lowest dilutions of the E. coli culture were counted on Petrifilm by plating 1 mL of each and growing overnight at 37° C.

[6] = test system: B. stearothermophilus spores; experiment: Bacillus stearothermophilus detection with β-TUGlc; type: cell-based
Procedure: B. stearothermophilus spores (commercially available as ATCC 7953 or ATCC 8005 from American Type Culture Collection, Rockville, Md.) were diluted in growth media to a concentration of 1.3×10^8 cells per mL. Dilutions to 10^7 […] and 10^6 cells/mL were prepared using 50 mM sodium phosphate, pH 7.6. Aliquots of these solutions were incubated with β-TUGlc (2×10^−6 M) at 56° C. in a fluorimeter and fluorescence was monitored with excitation at 450 nm and emission at 502 nm. […] In a similar manner, spore solutions that had been steam-sterilized for 20 minutes at 121° C. were mixed with the β-TUGlc. […] The growth medium for this Example was prepared by dissolution of trypticase peptone (5 g), phytone peptone (12 g) and L-alanine (17 mg) in 1 liter of water.

Bacillus subtilis spores = experiment: LED-based monitoring of bacterial cleavage of β-TUGlc; type: cell-based
Text: LED 110, having a maximum emission at 475 nm (Model HP HLMP CB15, Hewlett Packard Instruments, Palo Alto, Calif.), was driven in a pulsed mode with a 10% duty cycle by computer-controlled pulse generator 132 (Hewlett Packard Instruments). Light from LED 110 was introduced into filter block 130 (Model I3, Leica Microsystems, Inc., Deerfield, Ill.), comprising excitation filter 112 (model BP, 450-490 nm), dichroic mirror 114 (model RKP, reflection short pass at 510 nm), and emission filter 120 (model LP, 515 nm) and focused on an illumination region of sample 118 by objective lens 116. The illumination region was designed to accommodate a solution sample, a microfluidic chip, or other sample that might contain β-TUGlc to be enzymatically cleaved. A 10× objective was used for large detection zones (e.g., solution cuvettes, microwell arrays) and a 40× objective was used for small samples (e.g., 50 μm wide channels in microfluidic chips). Both objective lenses were obtained from Melles Griot, Irvine, Calif. […] Return fluorescence was passed through objective lens 116, reflected from dichroic mirror 114 through emission filter 120 and iris diaphragm 122, and detected with photomultiplier tube 124 (PMT Model H5783, Hamamatsu Corp., Bridgewater, N.J.) having an adjustable gain between 0 and 70,000 Amperes/Watt. PMT module 124 was powered by a 15 volt power supply (not shown). […]

[7] = Autoclave stability of β-TUGlc; type: physicochemical; conditions: 0.1 g/mL in B. subtilis growth media and pH 7.6 PBS; 20 minutes at 121° C., then 15 minutes at 132° C.
Procedure: Solutions of 0.1 g/mL of β-TUGlc (Example 1) in B. subtilis growth media and in pH 7.6 phosphate buffered saline (PBS) were heated in an autoclave for 20 minutes at 121° C. Fluorescence spectrum on excitation at 362 nm was obtained. The sample was heated a second time in an autoclave for 15 minutes at 132° C., and the fluorescence spectrum was obtained. […] Therefore, β-TUGlc was sufficiently robust to be used in a sterilization indicator format such as a Attest™ Rapid Readout Biological Indicator (3M Company, St. Paul, Minn.), wherein the fluorogenic enzyme substrate and the biological spore are both exposed to the conditions within the steam sterilizer.

β-glucosidase [8] = experiment: Hand-held LED probe, cleavage of β-TUGlc; type: biochemical; conditions: 0.125 units β-glucosidase, pH 7.6 PBS, GaN LED
Procedure: A solution of 100 μL of 1.0 mM β-TUGlc (Example 1) in DMF was combined with 840 μL of 7.6 pH PBS in a 1 mL cuvette, and the volume was adjusted to 990 μL by the addition of […] of 30 mM aq. MgCl. The mixture was irradiated using a GaN LED (λmax=480 nm, Nichia Chemical Industries, Ltd., Anan, J P) mounted in a compact, hand-held probe, and 10 μL of β-glucosidase (0.125 units in pH 7.6 PBS) was added. Within ten seconds, a strong fluorescent signal could be seen in the cuvette.

β-glucosidase [9] = experiment: LED-based monitoring of enzymatic cleavage of β-TUGlc; type: biochemical
Procedure: A 10× objective was used for large detection zones (e.g., solution cuvettes, microwell arrays) and a 40× objective was used for small samples (e.g., 50 μm wide channels in microfluidic chips). […] (Model #04 OAS 016; 0.65 N.A.).
Two stock solutions of β-glucosidase (Sigma Chemical Co., St. Louis, Mo.) were prepared in pH 7.6 phosphate buffered saline (PBS): (a) 1 enzyme unit/20 μL and (b) 1 enzyme unit/400 μL, where one enzyme unit liberates 1 μMole of product per minute when salicin is the substrate. Required amounts of the stock solutions were diluted with 980 μL of PBS to create samples of 0.5, 0.125, 0.0625, 0.025, and 0.0125 units per mL, represented in FIG. 17a by traces 1 through 5, respectively. These samples were incubated for 7 minutes at 37° C., then treated with 5 μL of 24.6 mM β-TUGlc in DMF (Example 1) such that the initial concentration of β-TUGlc was 123 μM.
Fluorescence resulting from cleavage of the substrate was monitored in a thermostatted cuvette at 37 ° C. using the testbed described in Example 9 with a PMT gain setting of 822 Amperes/Watt. Fluorescent response for each enzyme concentration was monitored for three minutes. FIG. 17b is a plot of the initial rates of reaction obtained from the data in FIG. 17a.

[10] = 5 μM solution in 50 mM PBS at pH 10.0
[11] = 5 μM solution in phosphate buffered saline at pH 7.6

β-galactosidase from E. coli, sequence (P00722 2-1024): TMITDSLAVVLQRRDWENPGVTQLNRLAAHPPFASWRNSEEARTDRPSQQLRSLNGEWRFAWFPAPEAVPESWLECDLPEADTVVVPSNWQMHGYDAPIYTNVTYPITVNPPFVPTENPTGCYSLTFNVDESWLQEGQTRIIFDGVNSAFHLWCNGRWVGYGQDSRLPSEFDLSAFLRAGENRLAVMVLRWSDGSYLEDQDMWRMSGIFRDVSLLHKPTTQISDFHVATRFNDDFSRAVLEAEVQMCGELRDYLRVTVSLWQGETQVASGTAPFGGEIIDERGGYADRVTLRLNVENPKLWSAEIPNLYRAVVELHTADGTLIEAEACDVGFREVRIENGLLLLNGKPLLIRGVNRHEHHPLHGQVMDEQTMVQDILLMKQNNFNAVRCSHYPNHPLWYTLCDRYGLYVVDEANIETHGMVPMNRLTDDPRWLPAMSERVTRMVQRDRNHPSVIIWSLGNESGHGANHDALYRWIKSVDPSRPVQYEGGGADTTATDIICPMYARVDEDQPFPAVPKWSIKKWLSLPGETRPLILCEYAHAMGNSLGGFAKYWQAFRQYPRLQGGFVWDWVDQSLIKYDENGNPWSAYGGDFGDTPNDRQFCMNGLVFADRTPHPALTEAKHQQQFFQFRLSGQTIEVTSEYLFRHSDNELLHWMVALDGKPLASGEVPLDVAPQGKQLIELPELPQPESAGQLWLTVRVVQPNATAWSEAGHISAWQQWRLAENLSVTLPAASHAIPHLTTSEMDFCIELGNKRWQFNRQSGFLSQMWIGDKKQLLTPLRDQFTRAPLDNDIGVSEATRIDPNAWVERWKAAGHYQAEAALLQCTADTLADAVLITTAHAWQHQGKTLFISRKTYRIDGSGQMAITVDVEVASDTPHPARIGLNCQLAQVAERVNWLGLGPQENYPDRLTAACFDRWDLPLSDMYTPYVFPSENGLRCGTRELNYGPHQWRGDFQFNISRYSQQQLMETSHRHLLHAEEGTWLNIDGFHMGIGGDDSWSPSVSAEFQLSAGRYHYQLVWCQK

time at which Vmax appears [2]: about 2 minutes
SMILES: O=c1oc2cc(OC3OC(CO)C(O)C(O)C3O)ccc2cc1-c1cccs1 (stereo not drawn) [α-TUGlc]
fluorescence at 502 nm after substrate addition [1]: Fluorescence increased rapidly in the first 20 minutes

pKa ([3]; umbelliferone hydrolysis product): 7.57±0.03
emission maximum [4, 10]: ~502 nm
excitation maximum [4, 10]: ~410 nm
λem (nm) [4]: 502 nm
λex (nm) [4]: 410 nm
SMILES: O=c1oc2cc(O)ccc2cc1-c1cccs1 [3-(2-thienyl) umbelliferyl anion, 3-(2-thienyl) umbelliferone]

SMILES: O=c1oc2cc(O[C@@H]3O[C@H](CO)[C@H](O)[C@H](O)[C@H]3O)ccc2cc1-c1cccs1 [β-TUGal, 3-(2-thienyl)-umbelliferyl-7-β-D-galactoside]
fluorescence at 502 nm on addition of β-galactosidase [5]: rapid increase in fluorescence
positive results (E. coli P18 cells; 0.56 cell concentration): 3 of the 10 concentrations showed positive results
fastest time to positive result (E. coli P18 cells; 56 cells per well, 62 μM indicator): 6.5 h

fraction hydrolyzed during each autoclave cycle [7]: approximately 10%
time to strong fluorescent signal (β-glucosidase [8]): ten
time to significant, detectable fluorescent signal (β-glucosidase [9]; 0.5 enzyme units, 123 μM substrate, 37° C., pH 7.6 PBS): less than 5 seconds
emission maximum [4, 11]: ~460 nm
excitation maximum [4, 11]: ~380 nm
SMILES: O=c1oc2cc(O[C@@H]3O[C@H](CO)[C@@H](O)[C@H](O)[C@H]3O)ccc2cc1-c1cccs1 [β-TUGlc, 3-(2-thienyl)-umbelliferyl-7-β-D-glucoside]
time until fluorescence changes were evident ([6]; 10^7 and 10^6 cells/mL, 2×10^−6 M substrate, 56° C., ex 450 nm, em 502 nm): less than 10 minutes
cleavage by steam-sterilized spore solutions ([6]; spores steam-sterilized 20 minutes at 121° C.): no enzymatic cleavage reaction
time to presumptive identification of B. subtilis after mixing (Bacillus subtilis spores; 10^8 spores/mL, 37° C., PMT gain 88 Amperes/Watt): less than five
fluorescent signal with steam-sterilized control (Bacillus subtilis spores; steam-sterilized at 121° C. for 20 minutes): no time-dependent changes in the fluorescent signal
fluorescent signal with steam-sterilized enzyme (β-glucosidase [9]; enzyme solutions steam-sterilized at 121° C. for 20 minutes): no time-dependent changes in the fluorescent signal

pKa [3]: 6.79
λem (nm) [4]: 488 nm
λex (nm) [4]: 447 nm
SMILES: O=c1oc2cc(O)ccc2cc1-c1nc2ccccc2s1 [3-(2-benzothiazolyl) umbelliferyl anion]

pKa [3]: 7.01
λem (nm) [4]: 477 nm
λex (nm) [4]: 420 nm
SMILES: O=c1oc2cc(O)ccc2cc1-c1nc2ccccc2[nH]1 [3-(2-benzoimidazolyl) umbelliferyl anion]

pKa [3]: 6.56
λem (nm) [4]: 471 nm
λex (nm) [4]: 425 nm
SMILES: O=c1oc2cc(O)ccc2cc1-c1nc2ccccc2o1 [3-(2-benzoxazolyl) umbelliferyl anion]
